Among the test systems are 786-0; A498; BT-549; DU-145; EKVX; HT-29; K562; MCF7; OVCAR-4; PC-3; RPMI-8226; SK-MEL-5; SNB-75; SW-620; T47D; TK-10; U-251; UACC-62; UO-31; RXF 393.
Assay in all cases: NCI anticancer screen, dose series, 48 h

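Cells were grown in 96-well plates and exposed to each compound for 48 hours at five concentrations; endpoints were interpolated linearly between bracketing concentrations, or set to the highest concentration if not reached. GI50 is the concentration that inhibits growth by half.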 Active and inactive are the calls of the source. Cut-off read from the data, not from the text of the source: active = GI50 up to about 1.1 µM and inactive = higher.

This note sets out measurements from ChEMBL document CHEMBL1201862, “PubChem BioAssay data set” (2004).

On to `OC(Cc1ccc2ccccc2n1)(C(F)(F)F)C(F)(F)F`, for which the GI50 in the experiment with 786-0, in the experiment on A498, in the experiment with BT-549, in the experiment with DU-145, in the experiment with EKVX and in the experiment with HT-29 was > 10 µM (inactive) throughout. In addition, the GI50 in the experiment with K562, in the experiment on MCF7, with OVCAR-4, with PC-3, in the experiment with RPMI-8226 and with SK-MEL-5 was > 10 µM (inactive) throughout. In addition, the GI50 in the experiment on SNB-75, in the experiment with SW-620, in the experiment on T47D, in the experiment with TK-10, with U-251 and in the experiment on UACC-62 was > 10 µM (inactive) throughout. Also, the GI50 in the experiment on UO-31 is > 10 µM (inactive).

As to `CN(C)CCN(C)P12(Oc3ccccc3O1)Oc1c(Cl)c(Cl)c(Cl)c(Cl)c1O2`, the GI50 with 786-0 was 54.6 µM (inactive); in the experiment on A498, 60.5 µM (inactive); in the experiment with BT-549 it was 56.4 µM (inactive); in the experiment with DU-145 it was 85.5 µM (inactive); in the experiment with EKVX, 99.8 µM (inactive); with HT-29, 43.8 µM (inactive). In addition, the GI50 was 35.6 µM (inactive) in the experiment on K562; 33.7 µM (inactive) in the experiment on MCF7; 33.5 µM (inactive) in the experiment with OVCAR-4; 33.7 µM (inactive) in the experiment with PC-3; 29.1 µM (inactive) with RPMI-8226; 58.6 µM (inactive) in the experiment on SK-MEL-5. Moreover, the GI50 in the experiment on SNB-75 was 13.7 µM (inactive); in the experiment on SW-620 it was 47.4 µM (inactive); in the experiment on T47D, 59.8 µM (inactive); in the experiment with TK-10 it was > 100 µM (inactive); with U-251 it was 56.5 µM (inactive); in the experiment with UACC-62, 33.3 µM (inactive). Besides, the GI50 with UO-31 was 39.1 µM (inactive).

Consider `Cc1ccc(S[C@@](C=O)(NC(=O)OCc2ccccc2)C(F)(F)F)cc1`, for which the GI50 in the experiment with 786-0 is 20.4 µM (inactive); in the experiment on A498 it was 65 µM (inactive); with BT-549, 28.4 µM (inactive); in the experiment with DU-145 it was 21.7 µM (inactive); in the experiment on EKVX, 22.3 µM (inactive); in the experiment with HT-29 it was 16.9 µM (inactive). Moreover, the GI50 in the experiment with K562 is 28.6 µM (inactive); in the experiment with MCF7, 26.7 µM (inactive); in the experiment on OVCAR-4, 44.9 µM (inactive); in the experiment on PC-3, 18.6 µM (inactive); with RPMI-8226 it was 20.6 µM (inactive); in the experiment with RXF 393, 14.4 µM (inactive). Moreover, the GI50 is 23.7 µM (inactive) with SK-MEL-5; 22.5 µM (inactive) in the experiment with SNB-75; 21.8 µM (inactive) in the experiment on SW-620; 23.8 µM (inactive) in the experiment on T47D; 17.6 µM (inactive) with U-251; 19.3 µM (inactive) in the experiment on UACC-62. Also, in the experiment with UO-31, the GI50 is 15.6 µM (inactive).

Take `O=[N+]([O-])C(C=C(n1nnc2ccccc21)n1nnc2ccccc21)=C(n1nnc2ccccc21)n1nnc2ccccc21`: the GI50 with 786-0, with A498, in the experiment with BT-549, in the experiment with DU-145, in the experiment on EKVX and with HT-29 was > 100 µM (inactive) in each case. For the same compound, the GI50 in the experiment with K562 is 42.3 µM (inactive); with MCF7 it was > 100 µM (inactive); in the experiment with PC-3 it was > 100 µM (inactive); in the experiment on RPMI-8226 it was 44.6 µM (inactive); with RXF 393, > 100 µM (inactive); with SW-620 it was > 100 µM (inactive). The GI50 was > 100 µM (inactive) in the experiment with T47D; > 100 µM (inactive) in the experiment on TK-10; > 100 µM (inactive) with U-251; > 100 µM (inactive) in the experiment on UACC-62; 22.1 µM (inactive) with UO-31.

Regarding `CC1=NCCN=C(C)C1/N=N/c1ccc2[nH]c(C)nc2c1`, the GI50 was 11.7 µM (inactive) in the experiment with 786-0; 0.912 µM (active) in the experiment with A498; 9.08 µM (inactive) in the experiment on BT-549; 16.1 µM (inactive) in the experiment with DU-145; 15.8 µM (inactive) in the experiment with EKVX; 12.6 µM (inactive) in the experiment with HT-29. The GI50 in the experiment with K562 was 4.83 µM (inactive); in the experiment on MCF7 it was 5.75 µM (inactive); in the experiment with OVCAR-4, 12.4 µM (inactive); in the experiment on PC-3 it was 6.03 µM (inactive); with RPMI-8226, 3.11 µM (inactive); with RXF 393, 16.3 µM (inactive). For the same compound, the GI50 in the experiment with SNB-75 was 13.2 µM (inactive); with SW-620 it was 14.9 µM (inactive); in the experiment on T47D, 12.7 µM (inactive); in the experiment with TK-10, 19.7 µM (inactive); with U-251, 17.5 µM (inactive); in the experiment with UACC-62, 14.2 µM (inactive).

As for `Cc1cc2c(c(C(=O)NCC(=O)N[C@@H](C)C(=O)OCc3ccccc3)c1)Oc1c(cc(C)cc1C(=O)NCC(=O)N[C@@H](C)C(=O)OCc1ccccc1)S2`, the GI50 in the experiment on 786-0, with A498, with BT-549, in the experiment on DU-145, in the experiment with EKVX and with HT-29 was > 100 µM (inactive) each time. Moreover, the GI50 is 23 µM (inactive) in the experiment with K562; > 100 µM (inactive) in the experiment with MCF7; > 100 µM (inactive) with OVCAR-4; > 100 µM (inactive) in the experiment on PC-3; 43.3 µM (inactive) with RPMI-8226; 20.1 µM (inactive) in the experiment on RXF 393. For the same compound, the GI50 in the experiment with SK-MEL-5 is > 100 µM (inactive); in the experiment on SNB-75, 15.8 µM (inactive); in the experiment on SW-620, > 100 µM (inactive); in the experiment on T47D, 2.41 µM (inactive); in the experiment with U-251, > 100 µM (inactive); in the experiment with UACC-62, 30.8 µM (inactive). Also, in the experiment with UO-31, the GI50 is > 100 µM (inactive).

In the case of `Nc1n[n+]([O-])c2ccc(Cl)cc2[n+]1[O-]`, the GI50 in the experiment on 786-0 is 31.7 µM (inactive); with A498, 26.9 µM (inactive); with BT-549 it was 13.2 µM (inactive); in the experiment on DU-145, 46.1 µM (inactive); in the experiment with EKVX it was 32.2 µM (inactive); with HT-29, 25.8 µM (inactive). The GI50 in the experiment with K562 was 10.3 µM (inactive); with MCF7 it was 16.9 µM (inactive); with PC-3, 22.3 µM (inactive); in the experiment with RPMI-8226 it was 14.7 µM (inactive); in the experiment with RXF 393 it was 18.4 µM (inactive); in the experiment with SK-MEL-5 it was 4.07 µM (inactive). Besides, the GI50 was 4.66 µM (inactive) in the experiment on SNB-75; 20.6 µM (inactive) in the experiment with SW-620; 24.7 µM (inactive) with T47D; 37.2 µM (inactive) with TK-10; 19.8 µM (inactive) in the experiment with U-251; > 10 µM (inactive) in the experiment on UACC-62. Besides, the GI50 in the experiment with UO-31 was 27.6 µM (inactive).

For `N#CCCN(CCC#N)c1ccc(/C=C2\N=C(c3ccccc3)N(c3ccccc3)C2=O)cc1`, the GI50 is 17 µM (inactive) with 786-0; > 100 µM (inactive) with A498; 57.1 µM (inactive) in the experiment on BT-549; > 100 µM (inactive) in the experiment with DU-145; > 100 µM (inactive) with EKVX; 8.97 µM (inactive) in the experiment with HT-29. Moreover, the GI50 in the experiment on K562 was 18.5 µM (inactive); in the experiment with MCF7, > 100 µM (inactive); in the experiment with OVCAR-4, > 100 µM (inactive); in the experiment on PC-3 it was 17 µM (inactive); in the experiment with RPMI-8226, 8.36 µM (inactive); in the experiment on RXF 393, > 100 µM (inactive). Also, the GI50 was 4.38 µM (inactive) in the experiment with SK-MEL-5; > 100 µM (inactive) in the experiment on SW-620; > 100 µM (inactive) in the experiment on T47D; > 100 µM (inactive) in the experiment with TK-10; > 100 µM (inactive) in the experiment with U-251; > 100 µM (inactive) in the experiment on UACC-62. Further, the GI50 with UO-31 was > 100 µM (inactive).

Take `CO/N=C(\C)c1cccc(Nc2c3ccccc3nc3occc23)c1`: the GI50 in the experiment on 786-0 was 14.7 µM (inactive); in the experiment on A498, 19.3 µM (inactive); in the experiment with BT-549, 18.1 µM (inactive); in the experiment with DU-145 it was 18.9 µM (inactive); in the experiment with EKVX it was 11.1 µM (inactive); with HT-29, 4.47 µM (inactive). The GI50 in the experiment with K562 is 4.11 µM (inactive); with MCF7, 6.47 µM (inactive); in the experiment on OVCAR-4, 4.75 µM (inactive); with PC-3 it was 16.8 µM (inactive); in the experiment on RPMI-8226 it was 4.36 µM (inactive); in the experiment on RXF 393, 0.0454 µM (active). In addition, the GI50 in the experiment with SK-MEL-5 was 6.22 µM (inactive); in the experiment with T47D, 7.23 µM (inactive); with TK-10, 20.4 µM (inactive); in the experiment with U-251, 14.2 µM (inactive); in the experiment with UACC-62 it was 7.55 µM (inactive); with UO-31, 12.8 µM (inactive).

With `CCOC(=O)CCC(NC(=O)c1ccc(NCc2ccc3nc(OC)c(OC)nc3c2)c2ccccc12)C(=O)OCC` (stereo not given), the GI50 in the experiment with 786-0 is 26.2 µM (inactive); with A498 it was 61.8 µM (inactive); in the experiment on BT-549 it was > 100 µM (inactive); in the experiment on DU-145, > 100 µM (inactive); in the experiment with EKVX, > 100 µM (inactive); with HT-29, > 100 µM (inactive). The GI50 in the experiment on K562 was > 100 µM (inactive); in the experiment with MCF7, 84.9 µM (inactive); in the experiment on OVCAR-4, 43.1 µM (inactive); in the experiment on PC-3, 61.4 µM (inactive); in the experiment on RXF 393 it was 31 µM (inactive); with SK-MEL-5, 58.1 µM (inactive). Also, the GI50 in the experiment with SNB-75 is 38.8 µM (inactive); in the experiment with SW-620, > 100 µM (inactive); in the experiment on T47D, > 100 µM (inactive); in the experiment on TK-10, 66.2 µM (inactive); in the experiment on U-251, 40.5 µM (inactive); in the experiment with UACC-62, 73.8 µM (inactive). For the same compound, the GI50 in the experiment with UO-31 was > 100 µM (inactive).

Turning to `NC1CC(=O)c2sc(I)cc21` (stereo not given), the GI50 with 786-0, in the experiment with A498, in the experiment on BT-549, in the experiment on DU-145, in the experiment on EKVX and in the experiment on HT-29 was > 100 µM (inactive) each time. Further, the GI50 in the experiment with K562 was 74 µM (inactive); in the experiment on MCF7, > 100 µM (inactive); with PC-3 it was > 100 µM (inactive); with RPMI-8226 it was 92.5 µM (inactive); in the experiment with RXF 393, > 100 µM (inactive); in the experiment on SK-MEL-5 it was > 100 µM (inactive). The GI50 in the experiment with SNB-75 is > 100 µM (inactive); with SW-620 it was 53.6 µM (inactive); with T47D, > 100 µM (inactive); in the experiment on TK-10, > 100 µM (inactive); in the experiment with U-251 it was > 100 µM (inactive); with UACC-62 it was > 100 µM (inactive). Also, the GI50 in the experiment with UO-31 was > 100 µM (inactive).
